According to patent US20110207926A1, “NOVEL DIHYDROTRIAZINE DERIVATIVE” (HAMARI CHEMICALS, LTD., priority 2008, published 2011):
Where two headings read alike, the source gives them in different places.

What was measured:
[1] = Water solubility test (Japanese Pharmacopoeia solubility test method); assay type: physicochemical; details: 20±5° C., dissolution in 30 min; for evaluation (water solubility): criteria of Table 9
Protocol: According to the Japanese Pharmacopoeia solubility test method, the compounds of Examples 1 and 7 of the present invention and the corresponding N-methyl unsubstituted compounds were examined for water solubility. To be specific, a test substance was powderized, placed in water and the mixture was vigorously shaken for 30 sec every 5 min at 20±5° C. The solubility was evaluated based on the degree of dissolution in 30 min by reference to the following Table 9.

E. coli ATCC 25922 = assay: Bactericidal activity test (MBC measurement); assay type: cell-based, Escherichia coli
Protocol: (§1) Each strain was cultured in Trypticase Soy agar medium for 18 to 20 hr, suspended in 0.1% peptone saline, and prepared to OD 600 nm, 1.0 McFarland. The suspension was further diluted with 0.1% peptone saline to give a test bacteria solution (targeted value; 2×10^7 CFU/mL).
(§2) At 0.5, 1 and 3 min from the start of the reaction, a part of the reaction mixture was sampled and mixed with an equal amount of a neutralizing agent (10% Tween 80, 3% lecithin/aqueous solution) to terminate the bactericidal reaction. The reaction mixture was inoculated to a 96 well microplate dispensed with 180 μL of Tripticase Soy liquid medium in advance, and statically cultured at 37° C. for 20 to 24 hr. Thereafter, the presence or absence of growth was visually evaluated, and the minimum concentration at which growth was not observed was taken as the minimal bactericidal concentration (MBC value) of each action time. The numerical values in the Tables show MBC, the unit is μg/mL, S. aureus means Staphylococcus aureus, MRSA means methicillin-resistant Staphylococcus aureus, E. coli means Escherichia coli, and P. aeruginosa means Pseudomonas aeruginosa.

MRSA ATCC 33591 = assay: Bactericidal activity test (MBC measurement); assay type: cell-based, methicillin-resistant Staphylococcus aureus
Protocol: as §1, §2

S. aureus ATCC 6538 = assay: Bactericidal activity test (MBC measurement); assay type: cell-based, Staphylococcus aureus
Protocol: as §1, §2

P. aeruginosa PAO-1 = assay: Bactericidal activity test (MBC measurement); assay type: cell-based, Pseudomonas aeruginosa
Protocol: as §1, §2

P. aeruginosa ATCC 27853 = assay: Bactericidal activity test (MBC measurement); assay type: cell-based, Pseudomonas aeruginosa
Protocol: as §1, §2

[2] = Skin sensitivity test, LLNA-BrdU method (lymph node weight); assay type: in vivo; details: 5 w/v % in acetone/olive oil 4:1, transdermal to auricle once a day for 3 days, mice
Protocol: For application of an external bactericidal/disinfectant agent to the skin, the sensitivity (allergenicity) is desirably as small as possible. […] The sensitivity was evaluated by a Local lymph node assay (LLNA) method using Bromodeoxyuridine (BrdU). In this test, measurement of the amount of BrdU uptaken by the lymph node using an ELISA kit was not performed, and the evaluation was based solely on the weight increase of the lymph node.
8-Week-old female CBA/JN Crlj mice were grouped (3 per group) according to the adequate strafication method based on the body weight (about 20 g) on the first day of administration. A test substance was prepared to 5 w/v % for each test substance by using a mixed solution of acetone and olive oil (v/v=4:1, A00). This was repeatedly administered transdermally to the auricle of the mice at 25 μL/auricle (50 for both auricles) once a day for 3 days. Two days after the final administration, BrdU 10 mg/mL (0.5 mL/mouse) was intraperitoneally administered. Three days after the final transdermal administration (next day of BrdU administration), carbon dioxide was given by inhalation to a comfortable death, and the auricle lymph node was isolated and the weight thereof was measured.

[3] = Escherichia coli, ATCC25922, 0.5 min, E. coli ATCC 25922, action time 0.5 min, read-out: MBC
[4] = Escherichia coli, ATCC25922, 1 min, E. coli ATCC 25922, action time 1 min, read-out: MBC
[5] = Escherichia coli, ATCC25922, 0.05 h, E. coli ATCC 25922, action time 3 min, read-out: MBC
[6] = Staphylococcus aureus, 0.5 min, MRSA ATCC 33591, action time 0.5 min, read-out: MBC
[7] = Staphylococcus aureus, 1 min, MRSA ATCC 33591, action time 1 min, read-out: MBC
[8] = Staphylococcus aureus, 0.05 h, MRSA ATCC 33591, action time 3 min, read-out: MBC
[9] = Staphylococcus aureus, ATCC6538, 0.5 min, S. aureus ATCC 6538, action time 0.5 min, read-out: MBC
[10] = Staphylococcus aureus, ATCC6538, 1 min, S. aureus ATCC 6538, action time 1 min, read-out: MBC
[11] = Staphylococcus aureus, ATCC6538, 0.05 h, S. aureus ATCC 6538, action time 3 min, read-out: MBC
[12] = Pseudomonas aeruginosa, PAO1, 0.5 min, P. aeruginosa PAO-1, action time 0.5 min, read-out: MBC
[13] = Pseudomonas aeruginosa, PAO1, 1 min, P. aeruginosa PAO-1, action time 1 min, read-out: MBC
[14] = Pseudomonas aeruginosa, PAO1, 0.05 h, P. aeruginosa PAO-1, action time 3 min, read-out: MBC
[15] = Pseudomonas aeruginosa, ATCC27853, 0.5 min, P. aeruginosa ATCC 27853, action time 0.5 min, read-out: MBC
[16] = Pseudomonas aeruginosa, ATCC27853, 1 min, P. aeruginosa ATCC 27853, action time 1 min, read-out: MBC
[17] = Pseudomonas aeruginosa, ATCC27853, 0.05 h, P. aeruginosa ATCC 27853, action time 3 min, read-out: MBC

Structure (SMILES) | water (mL) to dissolve 1 g [1] [mL] | SI value (Stimulation index, lymph node weight ratio to solvent group) [2] | evaluation (water solubility) [1] | MBC (E. coli ATCC 25922; [3]) [µg/mL] | MBC (E. coli ATCC 25922; [4]) [µg/mL] | MBC (E. coli ATCC 25922; [5]) [µg/mL] | MBC (MRSA ATCC 33591; [6]) [µg/mL] | MBC (MRSA ATCC 33591; [7]) [µg/mL] | MBC (MRSA ATCC 33591; [8]) [µg/mL] | MBC (S. aureus ATCC 6538; [9]) [µg/mL] | MBC (S. aureus ATCC 6538; [10]) [µg/mL] | MBC (S. aureus ATCC 6538; [11]) [µg/mL] | MBC (P. aeruginosa PAO-1; [12]) [µg/mL] | MBC (P. aeruginosa PAO-1; [13]) [µg/mL] | MBC (P. aeruginosa PAO-1; [14]) [µg/mL] | MBC (P. aeruginosa ATCC 27853; [15]) [µg/mL] | MBC (P. aeruginosa ATCC 27853; [16]) [µg/mL] | MBC (P. aeruginosa ATCC 27853; [17]) [µg/mL] | further results
CCCCCCCCN(C)C1=NC(C)(C)NC(NCc2ccc(Cl)cc2)=N1 [Example 1, N^4-octyl-N^4-methyl-1,6-dihydro-6,6-dimethyl-N^2— (4-chlorobenzyl)-1,3,5-triazine-2,4-diamine acetate] | <0.5 |  | very soluble (less than 1 mL) | 12.5 | 12.5 | 12.5 | 50 | 25 | 12.5 | 50 | 12 | 6.25 | 12.5 | 12.5 | 12.5 | 12.5 | 12.5 | 12.5 | 
CCCCCCCCN(C)C(=N)/N=C(\N)NCc1ccc(Cl)cc1.Cl [Example 27, N^5-octyl-N^5-methyl-N^1-(4-chlorobenzyl)biguanide hydrochloride] |  | 2.4 |  | 25 | 6.25 | 6.25 | 50 | 25 | 25 | 50 | 25 | 25 | 12.5 | 12.5 | 12.5 | 12.5 | 12.5 | 6.25 | 
CCCCCCCCNC1=NC(C)(C)N=C(NCC2CCCCC2)N1 [Ref. Ex. 3, 4-octylamino-2-cyclohexylmethylamino-1,6-dihydro-6,6-dimethyl-1,3,5-triazine acetate, reference compound] |  | 4.6 |  |  |  |  |  |  |  |  |  |  |  |  |  |  |  |  | 
CCCCCCCCCCNC(=N)NC(=N)N(C)Cc1ccccc1.Cl.Cl [Example 29, N^5-decyl-N′-methyl-N′-benzyl-biguanide dihydrochloride] |  |  |  |  |  |  |  |  |  |  |  |  |  |  |  |  |  |  | MBC (E. coli ATCC 25922; E. coli ATCC 25922, action time 0.5 min): 6.25 µg/mL; MBC (E. coli ATCC 25922; E. coli ATCC 25922, action time 1 min): 6.25 µg/mL; MBC (E. coli ATCC 25922; E. coli ATCC 25922, action time 3 min): 6.25 µg/mL; MBC (MRSA ATCC 33591; MRSA ATCC 33591, action time 0.5 min): 200 µg/mL; MBC (MRSA ATCC 33591; MRSA ATCC 33591, action time 1 min): 200 µg/mL; MBC (MRSA ATCC 33591; MRSA ATCC 33591, action time 3 min): 50 µg/mL; MBC (S. aureus ATCC 6538; S. aureus ATCC 6538, action time 0.5 min): 200 µg/mL; MBC (S. aureus ATCC 6538; S. aureus ATCC 6538, action time 1 min): 100 µg/mL; MBC (S. aureus ATCC 6538; S. aureus ATCC 6538, action time 3 min): 12.5 µg/mL; MBC (P. aeruginosa PAO-1; P. aeruginosa PAO-1, action time 0.5 min): 12.5 µg/mL; MBC (P. aeruginosa PAO-1; P. aeruginosa PAO-1, action time 1 min): 12.5 µg/mL; MBC (P. aeruginosa PAO-1; P. aeruginosa PAO-1, action time 3 min): 6.25 µg/mL; MBC (P. aeruginosa ATCC 27853; P. aeruginosa ATCC 27853, action time 0.5 min): 12.5 µg/mL; MBC (P. aeruginosa ATCC 27853; P. aeruginosa ATCC 27853, action time 1 min): 12.5 µg/mL; MBC (P. aeruginosa ATCC 27853; P. aeruginosa ATCC 27853, action time 3 min): 6.25 µg/mL
CCCCCCCCNC1=NC(C)(C)NC(Nc2ccccc2)=N1 [Ref. Ex. 4, 1,6-dihydro-6,6-dimethyl-4-octylamino-2-phenylamino-1,3,5-triazine acetate, reference compound] |  | 4.4 |  |  |  |  |  |  |  |  |  |  |  |  |  |  |  |  | 
CC(=O)O.CCCCCCCCN(C)C1=NC(C)(C)NC(NCc2ccc(Cl)c(Cl)c2)=N1 [Example 2, N^4-octyl-N^4-methyl-1,6-dihydro-6,6-dimethyl-N^2— (3,4-dichlorobenzyl)-1,3,5-triazine-2,4-diamine acetate] |  |  |  | 12.5 | 6.25 | 6.25 | 25 | 25 | 12.5 | 25 | 25 | 12.5 | 25 | 25 | 12.5 | 25 | 25 | 12.5 | 
CCCCCCCCCNC(=N)NC(=N)N(C)Cc1ccccc1.Cl.Cl [Example 30, N^5-nonyl-N^1-methyl-N^1-benzyl-biguanide dihydrochloride] |  |  |  | 12.5 | 12.5 | 12.5 | > 200 | > 100 | 25 | 200 | 100 | 25 | 12.5 | 6.25 | 6.25 | 6.25 | 6.25 | 6.25 | 
CCCCCCCCNC1=NC(C)(C)NC(N(C)Cc2ccccc2)=N1 [Example 5, N^4-octyl-1,6-dihydro-6,6-dimethyl-N^2-benzyl-N^2-methyl-1,3,5-triazine-2,4-diamine acetate] |  | 0.9 |  | 25 |  |  | 50 |  |  | 200 |  |  | 25 |  |  | 12.5 |  |  | 

Now from value to molecule, other results behind:

water (mL) to dissolve 1 g [1] [mL] | SI value (Stimulation index, lymph node weight ratio to solvent group) [2] | Structure (SMILES) | evaluation (water solubility) [1] | MBC (E. coli ATCC 25922; [3]) [µg/mL] | MBC (E. coli ATCC 25922; [4]) [µg/mL] | MBC (E. coli ATCC 25922; [5]) [µg/mL] | MBC (MRSA ATCC 33591; [6]) [µg/mL] | MBC (MRSA ATCC 33591; [7]) [µg/mL] | MBC (MRSA ATCC 33591; [8]) [µg/mL] | MBC (S. aureus ATCC 6538; [9]) [µg/mL] | MBC (S. aureus ATCC 6538; [10]) [µg/mL] | MBC (S. aureus ATCC 6538; [11]) [µg/mL] | MBC (P. aeruginosa PAO-1; [12]) [µg/mL] | MBC (P. aeruginosa PAO-1; [13]) [µg/mL] | MBC (P. aeruginosa PAO-1; [14]) [µg/mL] | MBC (P. aeruginosa ATCC 27853; [15]) [µg/mL] | MBC (P. aeruginosa ATCC 27853; [16]) [µg/mL] | MBC (P. aeruginosa ATCC 27853; [17]) [µg/mL] | further results
50 |  | CCCCCCCCNC1=NC(C)(C)NC(NCc2ccc(C)cc2)=N1 [Comp. Ex. 2, reference compound] | sparingly soluble (not less than 30 mL less than 100 mL) |  |  |  |  |  |  |  |  |  |  |  |  |  |  |  | 
110 |  | CCCCCCCCNC1=NC(C)(C)NC(NCc2ccc(Cl)cc2)=N1 [Comp. Ex. 1, reference compound] | slightly soluble (not less than 100 mL less than 1,000 mL) |  |  |  |  |  |  |  |  |  |  |  |  |  |  |  | 
 | 4.4 | CCCCCCCCNC1=NC(C)(C)N=C(NCc2ccc(C)cc2)N1 [Ref. Ex. 5, 4-octylamino-1,6-dihydro-6,6-dimethyl-2-(4-methylbenzylamino-1,3,5-triazine gluconate, reference compound] |  |  |  |  |  |  |  |  |  |  |  |  |  |  |  |  | 
0.9 | 2.6 | CCCCCCCCN(C)C1=NC(C)(C)NC(NCc2ccc(C)cc2)=N1 [Example 7, N^4-octyl-N^4-methyl-1,6-dihydro-6,6-dimethyl-N^2-(4-methylbenzyl)-1,3,5-triazine-2,4-diamine acetate] | very soluble (less than 1 mL) |  |  |  |  |  |  |  |  |  |  |  |  |  |  |  | 
